Measured values: US4607047A, “N-(allyl-2-pyrrolidinylmethyl) 2-methoxy-4-amino-5-methylsulfamoyl benzamide anti platelets aggregation agent” (Societe d'Etudes Scientifiques et Industrielles de …, priority 1983, dated 1986)

Assays:
[1] = test system: platelets; test: platelet aggregation caused by adenosine phosphate; format: cell-based; details: in vitro, rabbits
Experimental: (§1) The following pharmacological results illustrate the activity of the compound on platelet aggregation, the potentiation of such aggregation, the uptake of serotonin (the chemical name for which is 5-hydroxytryptamine) by the platelets and the release reaction of such platelets. This study was carried out on rabbits:
An inhibiting effect on the aggregation of platelets, caused by adenosine phosphate is observed.

[2] = test system: platelets; test: potentiation (induced by 5-hydroxytryptamine) of platelet aggregation caused by adenosinephosphate; format: cell-based, rabbits; details: rabbit platelets
Experimental: as §1
It is 63 times less powerful than METHYSERGIDE as a 5-hydroxytryptamine antagonist.

[3] = test system: platelets; test: potentiation (induced by adrenaline) of platelet aggregation caused by adenosinephosphate; format: cell-based, rabbits; details: rabbit platelets
Experimental: as §1
It is 20 times less powerful than PHENTOLAMINE as an adrenaline antagonist.

[4] = target: T1, alpha-2 receptors (Oryctolagus cuniculus); test: potentiation (induced by CLONIDINE) of platelet aggregation caused by adenosinephosphate; format: cell-based, rabbits; details: rabbit platelets; read-out: IC50, anti-adrenergic effect (potentiation induced by CLONIDINE of platelet aggregation caused by adenosinephosphate)
T1 construct: potentiation (induced by CLONIDINE) of platelet aggregation caused by adenosinephosphate; endogenous in cells; host or cells: rabbit blood platelets
From the text: (§2) The following pharmacological results illustrate the activity of the compound on platelet aggregation, the potentiation of such aggregation, the uptake of serotonin (the chemical name for which is 5-hydroxytryptamine) by the platelets and the release reaction of such platelets.

[5] = target: T2, alpha-2 receptors (Oryctolagus cuniculus, UniProt Q5ZQK3); test: as above; format: cell-based, rabbits; details: rabbit platelets
T2 construct: potentiation (induced by CLONIDINE) of platelet aggregation caused by adenosinephosphate; endogenous in cells; host or cells: rabbit blood platelets
T2 sequence (Q5ZQK3 1-451): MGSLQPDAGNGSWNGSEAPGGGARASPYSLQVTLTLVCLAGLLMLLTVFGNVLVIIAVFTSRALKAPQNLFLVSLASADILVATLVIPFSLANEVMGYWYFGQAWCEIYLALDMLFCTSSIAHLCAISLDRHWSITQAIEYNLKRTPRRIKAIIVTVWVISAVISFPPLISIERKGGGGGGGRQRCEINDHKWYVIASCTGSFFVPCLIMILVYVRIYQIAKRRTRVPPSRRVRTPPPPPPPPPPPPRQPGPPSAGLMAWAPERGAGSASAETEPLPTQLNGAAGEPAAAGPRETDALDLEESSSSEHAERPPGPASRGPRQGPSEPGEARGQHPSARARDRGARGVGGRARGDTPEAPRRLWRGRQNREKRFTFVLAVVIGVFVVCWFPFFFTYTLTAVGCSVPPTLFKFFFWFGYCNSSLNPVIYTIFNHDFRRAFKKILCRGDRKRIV
From the text: as §2

[6] = test system: platelets; test: uptake of carbon 14-marked 5-hydroxytryptamine by platelets; format: cell-based; details: Oryctolagus cuniculus, Platelet; rabbit platelets
From the text: as §2

[7] = test system: platelets; test: platelet aggregation induced by collagen; format: cell-based, rabbits; details: rabbit platelets
Experimental: as §1
(§3) The compound counteracts the action of collagen on the platelets.
a. prolongation of the typical latency phase which precedes aggregation of the platelets induced by collagen,
b. inhibition of the aggregation effect induced by collagen, and […]

[8] = test system: platelets; test: release of carbon 14-marked 5-hydroxytryptamine induced by collagen; format: cell-based, rabbits; details: rabbit platelets
Experimental: as §1, §3
The compound of the invention is 13 times more powerful than aspirin, which is well known for inhibiting the platelet release reaction.

[9] = test system: rabbit platelets; test: release of carbon 14-marked 5-hydroxytryptamine induced by adrenaline; format: cell-based; details: Oryctolagus cuniculus, Platelet, read-out: IC50, inhibition of release of carbon 14-marked 5-hydroxytryptamine induced by adrenaline
From the text: as §2

[10] = test system: human platelets; test: aggregation induced by thrombin, human platelets in vitro; format: cell-based; details: thrombin 3.3 units/ml PRP
Experimental: (§4) All those results agreeing, the following study was carried on human platelets in vitro, before proceeding to therapeutic applications. It relates to the effects of the compound according to the invention, in regard to aggregation induced by thrombin, collagen, adrenaline, and 5-hydroxytryptamine, and with regard to the release of carbon 14-marked 5-hydroxytryptamine, by thrombin, adrenaline and collagen.

[11] = test system: human platelets; test: aggregation induced by collagen, human platelets in vitro; format: cell-based
Experimental: as §4

[12] = test system: human platelets; test: aggregation induced by adrenaline, human platelets in vitro; format: cell-based
Experimental: as §4

[13] = test system: human platelets; test: aggregation induced by 5-hydroxytryptamine, human platelets in vitro; format: cell-based
Experimental: as §4

[14] = test system: human platelets; test: uptake of carbon 14-marked 5-hydroxytryptamine, human platelets in vitro; format: cell-based
[15] = test system: human platelets; test: release of carbon 14-marked 5-hydroxytryptamine induced by thrombin, human platelets; format: cell-based; details: human platelets in vitro
Experimental: as §4

[16] = test system: human platelets; test: release of marked 5-hydroxytryptamine induced by collagen, human platelets; format: cell-based; details: human platelets in vitro
Experimental: as §4

[17] = test system: human platelets; test: platelet release reaction induced by adrenaline, human platelets; format: cell-based; details: human platelets in vitro; witnessed by inhibition of second phase of aggregation
Experimental: as §4

[18] = test system: vascular thrombus; test: in vivo formation of a caused vascular thrombus; details: animals
[19] = test system: central dopaminergic receptors; test: action on central dopaminergic receptors; apomorphine climbing and stereotypies; format: in vivo, rodents
From the text: Although under those conditions the pathogenetic role of platelet dysfunction has not been definitively established, various medicaments which are assumed to act by interfering with the platelet function have been widely used. Reference may be made for example to aspirin, dipyridamole and sulphinpyrazone. […] It can be said therefore that the undesirable neurological effects are very limited with that medicament.

C=CCN1CCCC1CNC(=O)c1cc(S(=O)(=O)NC)c(N)cc1OC (stereo not shown) [the compound, N-(1-allyl-2-pyrrolidinylmethyl) 2-methoxy 4-amino 5-methylsulphamoyl benzamide]
platelet aggregation caused by adenosine phosphate [1]: inhibits
IC50 ([2]; Oryctolagus cuniculus, Platelet, read-out: IC50, inhibition of potentiation (induced by 5-hydroxytryptamine) of platelet aggregation caused by adenosinephosphate): 19 µM
times less powerful than METHYSERGIDE as a 5-hydroxytryptamine antagonist [2]: 63 times
IC50 ([3]; Oryctolagus cuniculus, Platelet, read-out: IC50, inhibition of potentiation (induced by adrenaline) of platelet aggregation caused by adenosinephosphate): 10 µM
times less powerful than PHENTOLAMINE as an adrenaline antagonist [3]: 20 times
IC50 [4]: 29.5 µM
activity relative to MIANSERINE as an alpha-2 antagonist [5]: twice as active
IC50 [6]: > 100 µM
aggregation effect induced by collagen [7]: inhibition
latency phase preceding aggregation of platelets induced by collagen [7]: prolongation
IC50 ([8]; Oryctolagus cuniculus, Platelet, read-out: IC50, inhibition of release of carbon 14-marked 5-hydroxytryptamine induced by collagen): 1800 nM
times more powerful than aspirin, platelet release reaction ([8]; collagen-induced release): 13 times
IC50 [9]: 100 µM
primary aggregation of platelets induced by thrombin [10]: does not influence
second phase of aggregation induced by thrombin [10]: inhibits
aggregation of platelets induced by collagen [11]: inhibits
first and second phases of aggregation of platelets induced by adrenaline [12]: inhibits both
aggregation of platelets induced by 5-hydroxytryptamine [13]: inhibits
uptake of carbon 14-marked 5-hydroxytryptamine by platelets [14]: does not influence
release of carbon 14-marked 5-hydroxytryptamine induced by thrombin [15]: inhibits
release of marked 5-hydroxytryptamine induced by collagen [16]: inhibits
release reaction of the platelets induced by adrenaline [17]: inhibits
conditions of formation of a caused vascular thrombus (anti-aggregating effect) [18]: modifies the conditions of formation
action on the central dopaminergic receptors ([19]; animals): only a very weak action
doses to counteract apomorphine effects (climbing and stereotypies) ([19]; rodents): high doses are required
